This is an account of results in patent US6406720B1, “Cosmetic containing plant extracts” (Laboratoires Serobiologiques (Societe Anonyme), priority 1997, dated 2002).

This experiment has as its system tyrosinase. Nature of the experiment: anti-tyrosinase action (oxidation of L-DOPA to DOPACHROME, Mason's method). The experiment is classed as biochemical. As to conditions: concentration which halves the initial speed of DOPACROME formation. How it is done: To determine the de-pigmenting power of the extracts, their tyrosinase action was evaluated by measuring the product of oxidising L-DOPA to DOPACHROME (by HS Mason's method, 1948), carrying out the following stages: […]
mixing tyrosinase with L-DOPA in the phosphate buffer with an automatic pipette recording the optical density at 475 nm for 2 minutes, then calculating the initial speed of the enzyme reaction and determining the C150 (concentration which halves the initial speed of DOPACROME formation).

As to `Oc1ccc(O)cc1` [Hydroquinone], the “C150 anti-tyrosinase effect in %” value worked out at 0.025%.
